In paper PMC5505701, “Somatostatin binds to the human amyloid β peptide and favors the formation of distinct oligomers” (eLife, 2017):
Entries after “also recorded” stand apart in the source; their conditions may differ.

Assays:
[1] = test system: tau phosphorylated at pSer202/pThr205 (AT8) and pThr231 (AT180) in primary hippocampal neurons; test: Primary hippocampal neuron tau phosphorylation assay (Western blot)
Aβ1-42 [2] = molecular target: T1, Aβ1-42 (Homo sapiens, UniProt P05067); test: Negative stain electron microscopy of Aβ1-42 assemblies; assay type: biochemical; details: 50 μM Aβ1-42 in PBS, with or without equimolar SST
T1 construct: purchased Anaspec, Inc. (Fremont, CA, USA) AS-24224; host or cells: synthetic peptide

Aβ1-42 [3] = molecular target: T1, Aβ1-42; test: Western blot / silver stain detection of Aβ1-42 after incubation with SST14 or CST17; assay type: biochemical; details: 18 hr incubation, 6E10 Western blot, Aβ1-42 alone or with SST14 or CST17
Method: Initially, we were interested in observing the influence of incubation time on sample composition (Figure 5B).

SST14 = test: SST14-dependent ThT incorporation in presence of Aβ1-42; assay type: biochemical, human
Source text: Figure 4. […] (A) Workflow of ThT-based aggregation assay. (B) Representative ThT fluorescence charts using synthetic Aβ1-42 alone or in combination with SST14 or negative control AVP peptides. […] Please see legend for experimental conditions. DOI: http://dx.doi.org/10.7554/eLife.28401.008 Figure 4—figure supplement 1. […] (A) Workflow of ThT-based aggregation assay. […] (B) Representative ThT fluorescence charts monitoring SST14-dependent ThT incorporation. […] DOI: http://dx.doi.org/10.7554/eLife.28401.009 [drawing 1] Figure 4—figure supplement 2. […] (A) Workflow of amylin-dependent ThT fluorecence assay in the presence or absence of SST14. (B) Representative ThT fluorescence charts monitoring amylin-dependent ThT incorporation. […] DOI: http://dx.doi.org/10.7554/eLife.28401.010 [drawing 2]
Assay procedures were largely based on a protocol described by Sarah Linse’s group ([Hellstrand et al., 2010]). […] The subsequent plate incubation proceeded at 37°C with shaking at 700 rpm for 4 of every 5 min in a microplate reader (CLARIOstar, BMG Labtech, Guelph, ON, Canada) for overall durations specified in individual figures. ThT fluorescence was measured every 5 min at excitation and emission wavelengths of 444 nm and 485 nm, respectively.

Aβ = details: ref Maftei et al., 2012; cited from earlier work
Source text: Although initially captured at pH 8.0, a widely-used pH for interactome analyses, owed to its wide-spread use in radioimmunoprecipitation assay (RIPA) buffer formulations, the oAβ-SST14 interaction was in subsequent validation ...

T1 sequence (P05067 672-713 limits assumed): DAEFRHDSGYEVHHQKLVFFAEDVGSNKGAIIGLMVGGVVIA

| Substance | tau hyperphosphorylation by monomeric Aβ1-42 ([1]; monomeric Aβ1-42 (0 hr) alone, 24 hr exposure) | tau hyperphosphorylation by oligomeric Aβ1-42 ([1]; pre-aggregated (24 hr) Aβ1-42, 24 hr exposure, day 18 cultures, AT8 and AT180, listed as oAβ1-42) | assemblies observed by negative stain electron microscopy (Aβ1-42 [2]) | apparent molecular weight of HMM 6E10 signals (Aβ1-42 [3]) | delay of SST14-dependent ThT incorporation by monomeric Aβ1-42 (SST14; 1 μM monomeric Aβ1-42, 250 μM SST14) | delay of SST14-dependent ThT incorporation by oligomeric Aβ1-42 (SST14; 1 μM pre-aggregated Aβ1-42, 250 μM SST14) | Aβ binding epitope (Aβ) |
| --- | --- | --- | --- | --- | --- | --- | --- |
| amyloid β peptide 1-42 [Aβ1-42] | not observed when monomeric Aβ1-42 was added to the cell culture medium alone | robust tau hyperphosphorylation was observed | characteristic amyloid fibrils | 55-200 kDa | Oligomeric, but not monomeric, Aβ1-42 interferes with SST14-dependent ThT incorporation | reliably delayed SST14-dependent ThT incorporation by several hours; also recorded: profound delay in SST14 aggregation-dependent ThT incorporation | – |
| humanin: 21-24 amino acid peptide coded within the mitochondrial 16S ribosomal RNA gene | – | – | – | – | – | – | interacts with an Aβ binding epitope encompassing residues 17-28 |
